Source: the kinase profiling compilation of Christmann-Franck et al. (2016)

How the values were obtained:
Assay in all cases: KINOMEscan competition binding
[1] = target: FGFR3 (human) (UniProt P22607); settings: compound 10.0 µM
[2] = target: LIMK2 (human) (UniProt P53671); settings: compound 10.0 µM
[3] = target: BLK (human) (UniProt P51451); settings: compound 10.0 µM
[4] = target: PIK3C2B (human) (UniProt O00750); settings: compound 10.0 µM
[5] = test system: EGFR (human), P00533 [G719S]; settings: compound 10.0 µM
[6] = target: FES (human) (UniProt P07332); settings: compound 10.0 µM
[7] = target: ROCK1 (human) (UniProt Q13464); settings: compound 10.0 µM
[8] = target: MAP4K1 (human) (UniProt Q92918); settings: compound 10.0 µM
[9] = target: TGFBR2 (human) (UniProt P37173); settings: compound 10.0 µM
[10] = target: CDK4 CCND3 (human) (UniProt P11802+P30281); settings: compound 10.0 µM
[11] = target: SRPK1 (human) (UniProt Q96SB4); settings: compound 10.0 µM
[12] = target: PRKAA2 (human) (UniProt P54646); settings: compound 10.0 µM
[13] = target: CSNK2A2 (human) (UniProt P19784); settings: compound 10.0 µM
[14] = target: GSK3B (human) (UniProt P49841); settings: compound 10.0 µM
[15] = target: PRKACA (human) (UniProt P17612); settings: compound 10.0 µM
[16] = target: PI4KB (human) (UniProt Q9UBF8); settings: compound 10.0 µM
[17] = target: MET (human) (UniProt P08581); settings: compound 10.0 µM
[18] = test system: ABL1 (human), P00519 [Y253F]; settings: compound 10.0 µM
[19] = target: CSF1R (human) (UniProt P07333); settings: compound 10.0 µM
[20] = target: ADCK3 (human) (UniProt Q8NI60); settings: compound 10.0 µM
[21] = test system: BRAF (human), P15056 [V600E]; settings: compound 10.0 µM
[22] = target: PRKG2 (human) (UniProt Q13237); settings: compound 10.0 µM
[23] = target: MYLK3 (human) (UniProt Q32MK0); settings: compound 10.0 µM
[24] = target: NEK4 (human) (UniProt P51957); settings: compound 10.0 µM
[25] = target: SRC (human) (UniProt P12931); settings: compound 10.0 µM
[26] = target: HIPK4 (human) (UniProt Q8NE63); settings: compound 10.0 µM
[27] = target: CDK18 (human) (UniProt Q07002); settings: compound 10.0 µM
[28] = target: MAP4K2 (human) (UniProt Q12851); settings: compound 10.0 µM
[29] = target: HCK (human) (UniProt P08631); settings: compound 10.0 µM
[30] = target: PRKCI (human) (UniProt P41743); settings: compound 10.0 µM
[31] = target: PLK1 (human) (UniProt P53350)
[32] = target: CDK19 (human) (UniProt Q9BWU1); settings: compound 10.0 µM
[33] = target: AKT2 (human) (UniProt P31751); settings: compound 10.0 µM
[34] = target: RIOK3 (human) (UniProt O14730); settings: compound 10.0 µM
[35] = target: JAK1 JH2 pseudokinase (human) (UniProt P23458); settings: compound 10.0 µM
[36] = target: DDR2 (human) (UniProt Q16832); settings: compound 10.0 µM
[37] = target: MYO3B (human) (UniProt Q8WXR4); settings: compound 10.0 µM
[38] = target: MKNK2 (human) (UniProt Q9HBH9)
[39] = target: RPS6KA2 KD1 (human) (UniProt Q15349); settings: compound 10.0 µM
[40] = target: TLK1 (human) (UniProt Q9UKI8); settings: compound 10.0 µM
[41] = target: PTK2B (human) (UniProt Q14289); settings: compound 10.0 µM

MKNK2 (human), sequence (Q9HBH9 whole entry, looked up): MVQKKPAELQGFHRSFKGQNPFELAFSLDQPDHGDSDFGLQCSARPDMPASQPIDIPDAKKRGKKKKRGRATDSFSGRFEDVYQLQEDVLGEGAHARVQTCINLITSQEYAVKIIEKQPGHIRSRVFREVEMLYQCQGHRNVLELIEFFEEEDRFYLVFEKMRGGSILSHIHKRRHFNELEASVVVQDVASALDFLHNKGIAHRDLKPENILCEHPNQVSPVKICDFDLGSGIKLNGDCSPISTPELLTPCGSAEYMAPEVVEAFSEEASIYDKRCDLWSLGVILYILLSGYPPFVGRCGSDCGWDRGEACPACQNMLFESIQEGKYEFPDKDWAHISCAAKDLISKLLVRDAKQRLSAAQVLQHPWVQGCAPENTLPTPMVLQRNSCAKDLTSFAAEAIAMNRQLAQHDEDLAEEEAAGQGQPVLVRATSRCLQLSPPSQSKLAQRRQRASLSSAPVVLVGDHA
PLK1 (human), sequence (P53350 whole entry, looked up): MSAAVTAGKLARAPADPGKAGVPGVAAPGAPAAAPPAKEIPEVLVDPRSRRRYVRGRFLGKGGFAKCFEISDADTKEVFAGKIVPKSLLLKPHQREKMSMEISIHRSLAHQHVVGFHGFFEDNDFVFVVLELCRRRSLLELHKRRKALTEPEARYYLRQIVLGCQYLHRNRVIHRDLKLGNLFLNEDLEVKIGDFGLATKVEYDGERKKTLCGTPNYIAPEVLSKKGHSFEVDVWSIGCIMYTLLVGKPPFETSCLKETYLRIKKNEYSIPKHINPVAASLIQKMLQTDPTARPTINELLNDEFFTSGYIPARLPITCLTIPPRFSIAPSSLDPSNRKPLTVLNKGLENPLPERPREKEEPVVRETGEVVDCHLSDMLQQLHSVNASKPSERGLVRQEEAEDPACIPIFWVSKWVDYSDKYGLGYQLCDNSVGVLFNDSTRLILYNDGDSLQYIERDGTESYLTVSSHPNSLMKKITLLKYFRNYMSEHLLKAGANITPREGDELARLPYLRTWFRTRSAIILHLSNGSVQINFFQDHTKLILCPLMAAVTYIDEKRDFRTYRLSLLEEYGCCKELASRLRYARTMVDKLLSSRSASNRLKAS
ADCK3 (human), sequence (Q8NI60 whole entry, looked up): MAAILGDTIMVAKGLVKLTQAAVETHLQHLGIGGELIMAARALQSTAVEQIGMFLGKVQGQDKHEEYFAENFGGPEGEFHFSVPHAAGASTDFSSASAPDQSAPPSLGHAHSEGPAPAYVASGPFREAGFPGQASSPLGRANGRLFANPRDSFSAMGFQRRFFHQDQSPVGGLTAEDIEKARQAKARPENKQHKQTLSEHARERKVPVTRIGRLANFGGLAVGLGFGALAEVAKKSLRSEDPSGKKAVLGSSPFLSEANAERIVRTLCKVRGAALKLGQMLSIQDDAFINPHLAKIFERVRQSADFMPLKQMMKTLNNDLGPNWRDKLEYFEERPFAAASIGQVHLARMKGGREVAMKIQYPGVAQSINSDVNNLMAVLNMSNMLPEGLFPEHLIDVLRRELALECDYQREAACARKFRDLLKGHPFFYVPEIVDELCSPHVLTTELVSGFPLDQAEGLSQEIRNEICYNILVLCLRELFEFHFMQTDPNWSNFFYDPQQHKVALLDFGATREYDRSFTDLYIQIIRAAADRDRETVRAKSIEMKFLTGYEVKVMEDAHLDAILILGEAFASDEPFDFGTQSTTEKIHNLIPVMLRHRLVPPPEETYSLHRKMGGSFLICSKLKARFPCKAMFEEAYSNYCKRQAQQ
DDR2 (human), sequence (Q16832 whole entry, looked up): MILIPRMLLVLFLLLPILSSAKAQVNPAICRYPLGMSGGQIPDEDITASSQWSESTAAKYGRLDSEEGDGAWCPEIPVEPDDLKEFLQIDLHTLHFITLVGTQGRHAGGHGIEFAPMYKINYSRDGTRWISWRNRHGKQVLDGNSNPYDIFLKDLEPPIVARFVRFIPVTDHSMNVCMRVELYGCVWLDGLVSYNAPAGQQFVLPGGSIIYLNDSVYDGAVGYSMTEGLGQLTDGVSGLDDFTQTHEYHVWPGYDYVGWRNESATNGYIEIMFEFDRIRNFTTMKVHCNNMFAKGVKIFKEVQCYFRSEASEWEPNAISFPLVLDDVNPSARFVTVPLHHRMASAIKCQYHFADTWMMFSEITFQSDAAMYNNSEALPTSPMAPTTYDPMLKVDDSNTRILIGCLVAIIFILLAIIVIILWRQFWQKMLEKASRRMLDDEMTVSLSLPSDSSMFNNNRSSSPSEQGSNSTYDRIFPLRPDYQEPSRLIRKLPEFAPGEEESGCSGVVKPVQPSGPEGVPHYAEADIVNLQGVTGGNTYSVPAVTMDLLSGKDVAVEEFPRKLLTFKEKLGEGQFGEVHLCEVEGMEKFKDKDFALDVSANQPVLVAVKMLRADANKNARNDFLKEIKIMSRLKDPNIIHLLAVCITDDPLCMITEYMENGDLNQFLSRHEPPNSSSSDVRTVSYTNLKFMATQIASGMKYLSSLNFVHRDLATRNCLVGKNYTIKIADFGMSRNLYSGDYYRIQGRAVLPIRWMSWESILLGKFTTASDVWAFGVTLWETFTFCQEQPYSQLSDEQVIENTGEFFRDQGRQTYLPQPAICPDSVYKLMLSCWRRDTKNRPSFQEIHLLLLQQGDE
PI4KB (human), sequence (Q9UBF8 whole entry, looked up): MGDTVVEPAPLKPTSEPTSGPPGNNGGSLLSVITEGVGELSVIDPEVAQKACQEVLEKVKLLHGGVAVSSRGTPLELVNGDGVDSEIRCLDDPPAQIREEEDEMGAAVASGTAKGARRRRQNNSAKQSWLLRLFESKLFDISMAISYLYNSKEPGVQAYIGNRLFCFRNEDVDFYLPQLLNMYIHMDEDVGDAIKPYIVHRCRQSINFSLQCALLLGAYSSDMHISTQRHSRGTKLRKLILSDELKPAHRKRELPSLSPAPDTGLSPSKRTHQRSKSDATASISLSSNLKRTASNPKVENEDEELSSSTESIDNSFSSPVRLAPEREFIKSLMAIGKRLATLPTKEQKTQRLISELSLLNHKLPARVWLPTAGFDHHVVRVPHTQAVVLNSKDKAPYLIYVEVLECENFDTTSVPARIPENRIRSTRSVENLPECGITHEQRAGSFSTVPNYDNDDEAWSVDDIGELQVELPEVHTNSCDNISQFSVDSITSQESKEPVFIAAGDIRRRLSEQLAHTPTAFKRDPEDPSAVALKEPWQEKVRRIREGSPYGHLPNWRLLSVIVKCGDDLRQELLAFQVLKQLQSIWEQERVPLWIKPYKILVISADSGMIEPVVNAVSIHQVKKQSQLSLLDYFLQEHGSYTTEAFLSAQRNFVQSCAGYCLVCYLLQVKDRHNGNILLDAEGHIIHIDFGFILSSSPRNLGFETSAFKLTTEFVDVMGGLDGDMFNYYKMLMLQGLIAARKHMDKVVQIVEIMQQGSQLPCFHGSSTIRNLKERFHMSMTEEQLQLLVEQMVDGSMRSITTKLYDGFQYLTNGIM
CSF1R (human), sequence (P07333 whole entry, looked up): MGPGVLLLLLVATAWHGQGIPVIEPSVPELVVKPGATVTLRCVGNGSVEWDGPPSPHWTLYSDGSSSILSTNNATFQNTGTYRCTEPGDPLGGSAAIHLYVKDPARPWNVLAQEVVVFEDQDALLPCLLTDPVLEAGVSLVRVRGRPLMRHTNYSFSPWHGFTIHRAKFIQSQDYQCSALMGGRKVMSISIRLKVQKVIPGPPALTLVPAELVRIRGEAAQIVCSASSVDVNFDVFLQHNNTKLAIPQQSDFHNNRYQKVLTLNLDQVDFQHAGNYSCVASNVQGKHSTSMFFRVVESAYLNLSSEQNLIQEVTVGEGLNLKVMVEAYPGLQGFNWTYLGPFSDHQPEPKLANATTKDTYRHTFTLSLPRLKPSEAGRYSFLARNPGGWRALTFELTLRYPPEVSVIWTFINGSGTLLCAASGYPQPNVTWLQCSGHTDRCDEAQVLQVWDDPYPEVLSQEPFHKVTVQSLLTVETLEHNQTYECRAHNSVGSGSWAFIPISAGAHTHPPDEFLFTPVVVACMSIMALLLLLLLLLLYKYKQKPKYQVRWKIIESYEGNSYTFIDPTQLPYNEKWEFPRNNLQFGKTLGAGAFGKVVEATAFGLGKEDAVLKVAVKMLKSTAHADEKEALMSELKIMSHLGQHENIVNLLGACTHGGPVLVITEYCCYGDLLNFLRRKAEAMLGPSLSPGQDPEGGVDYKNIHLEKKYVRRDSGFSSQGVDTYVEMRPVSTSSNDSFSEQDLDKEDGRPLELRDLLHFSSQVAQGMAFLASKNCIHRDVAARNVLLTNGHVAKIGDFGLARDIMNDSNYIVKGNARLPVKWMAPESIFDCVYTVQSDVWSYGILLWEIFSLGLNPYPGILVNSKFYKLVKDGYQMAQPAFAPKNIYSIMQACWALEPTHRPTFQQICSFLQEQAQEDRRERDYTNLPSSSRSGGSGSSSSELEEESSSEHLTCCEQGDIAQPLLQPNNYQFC
AKT2 (human), sequence (P31751 whole entry, looked up): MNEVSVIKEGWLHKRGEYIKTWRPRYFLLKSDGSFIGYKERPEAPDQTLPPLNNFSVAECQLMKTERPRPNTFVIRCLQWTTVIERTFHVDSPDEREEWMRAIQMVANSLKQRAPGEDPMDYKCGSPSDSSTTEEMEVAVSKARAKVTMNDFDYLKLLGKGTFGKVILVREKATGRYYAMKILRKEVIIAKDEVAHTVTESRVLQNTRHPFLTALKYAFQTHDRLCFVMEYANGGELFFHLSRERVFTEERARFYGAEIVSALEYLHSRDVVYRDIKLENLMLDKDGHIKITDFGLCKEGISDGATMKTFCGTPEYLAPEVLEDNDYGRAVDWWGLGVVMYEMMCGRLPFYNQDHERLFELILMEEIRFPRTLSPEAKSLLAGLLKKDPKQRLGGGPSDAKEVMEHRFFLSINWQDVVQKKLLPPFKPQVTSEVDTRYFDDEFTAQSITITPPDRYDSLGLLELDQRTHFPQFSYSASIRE

Q: What does the source list for COc1cc(C(=O)N2CCC(N3CCN(C)CC3)CC2)ccc1Nc1ncc2c(n1)N(C)c1ccccc1C(=O)N2C?
A: kinase still bound, per cent of control [1]: 80%; kinase still bound, per cent of control [2]: 100%; kinase still bound, per cent of control [3]: 97%; kinase still bound, per cent of control [4]: 100%; kinase still bound, per cent of control [5]: 86%; kinase still bound, per cent of control [6]: 84%; kinase still bound, per cent of control [7]: 100%; kinase still bound, per cent of control [8]: 100%; kinase still bound, per cent of control [9]: 100%; residual activity [10]: 100%; kinase still bound, per cent of control [11]: 94%; kinase still bound, per cent of control [12]: 66%; kinase still bound, per cent of control [13]: 93%; kinase still bound, per cent of control [14]: 88%; residual activity [15]: 100%; kinase still bound, per cent of control [16]: 95%; kinase still bound, per cent of control [17]: 100%; kinase still bound, per cent of control [18]: 89%; kinase still bound, per cent of control [19]: 98%; kinase still bound, per cent of control [20]: 71%; kinase still bound, per cent of control [21]: 100%; kinase still bound, per cent of control [22]: 74%; kinase still bound, per cent of control [23]: 100%; kinase still bound, per cent of control [24]: 95%; kinase still bound, per cent of control [25]: 100%; kinase still bound, per cent of control [26]: 100%; residual activity [27]: 100%; kinase still bound, per cent of control [28]: 100%; kinase still bound, per cent of control [29]: 100%; kinase still bound, per cent of control [30]: 100%; Kd [31]: 75 nM; kinase still bound, per cent of control ([31]; compound 10.0 µM): 0.7%; residual activity [32]: 100%; kinase still bound, per cent of control [33]: 100%; kinase still bound, per cent of control [34]: 85%; kinase still bound, per cent of control [35]: 92%; kinase still bound, per cent of control [36]: 100%; kinase still bound, per cent of control [37]: 83%; Kd [38]: 380 nM; kinase still bound, per cent of control ([38]; compound 10.0 µM): 1.2%; kinase still bound, per cent of control [39]: 83%; kinase still bound, per cent of control [40]: 100%; kinase still bound, per cent of control [41]: 78%
